Results taken from patent US12377104B1, “Methods for treating a fatty liver disease” (Madrigal Pharmaceuticals, Inc., priority 2024, dated 2025).

Test: Resmetirom exposure parameters by dose, quartile and body weight
Assay type: in vivo, human
Method: Various body weight cutoffs for dosing were evaluated.

With `CC(C)c1cc(Oc2c(Cl)cc(-n3nc(C#N)c(=O)[nH]c3=O)cc2Cl)n[nH]c1=O` [Resmetirom, 2-(3,5-dichloro-4-((5-isopropyl-6-oxo-1,6-dihydropyridazin-3-yl)oxy)phenyl)-3,5-dioxo-2,3,4,5-tetrahydro-1,2,4-triazine-6-carbonitrile] the “Cmin,ss Geometric Mean” value (80 mg, 80-<90 kg) was 20.7 ng/mL, the “Cmin,ss Mean” value (80 mg, 80-<90 kg) was 55.9 ng/mL and the “Cmin,ss Median” value (80 mg, 80-<90 kg) was 18.4 ng/mL. For the same molecule, the “t1/2α Geometric Mean” value (80 mg, 80-<90 kg) was 1.21 h, the “t1/2α Mean” value (80 mg, 80-<90 kg) was 1.34 h and the “t1/2α Median” value (80 mg, 80-<90 kg) was 1.24 h. The “t1/2β Geometric Mean” value (80 mg, 80-<90 kg) was 5.15 h, the “t1/2β Mean” value (80 mg, 80-<90 kg) was 6.04 h and the “t1/2β Median” value (80 mg, 80-<90 kg) was 4.41 h. The “Cmin,ss Geometric Mean” value (80 mg, 90-<100 kg) was 14.2 ng/mL, the “Cmin,ss Mean” value (80 mg, 90-<100 kg) was 52.0 ng/mL and the “Cmin,ss Median” value (80 mg, 90-<100 kg) was 12.0 ng/mL. The “t1/2α Geometric Mean” value (80 mg, 90-<100 kg) was 1.10 h, the “t1/2α Mean” value (80 mg, 90-<100 kg) was 1.21 h and the “t1/2α Median” value (80 mg, 90-<100 kg) was 1.02 h. For the same molecule, the “t1/2β Geometric Mean” value (80 mg, 90-<100 kg) was 4.81 h, the “t1/2β Mean” value (80 mg, 90-<100 kg) was 5.50 h and the “t1/2β Median” value (80 mg, 90-<100 kg) was 4.29 h. The “Cmin,ss Geometric Mean” value (80 mg, 100-<110 kg) was 13.2 ng/mL, the “Cmin,ss Mean” value (80 mg, 100-<110 kg) was 37.3 ng/mL and the “Cmin,ss Median” value (80 mg, 100-<110 kg) was 14.1 ng/mL. The “t1/2α Geometric Mean” value (80 mg, 100-<110 kg) was 1.12 h, the “t1/2α Mean” value (80 mg, 100-<110 kg) was 1.26 h and the “t1/2α Median” value (80 mg, 100-<110 kg) was 1.12 h. For the same molecule, the “t1/2β Geometric Mean” value (80 mg, 100-<110 kg) was 4.99 h, the “t1/2β Mean” value (80 mg, 100-<110 kg) was 5.86 h and the “t1/2β Median” value (80 mg, 100-<110 kg) was 4.50 h. For the same molecule, the “Cmin,ss Geometric Mean” value (80 mg, <80 kg) was 26.7 ng/mL, the “Cmin,ss Mean” value (80 mg, <80 kg) was 72.8 ng/mL and the “Cmin,ss Median” value (80 mg, <80 kg) was 25.5 ng/mL. For the same molecule, the “t1/2α Geometric Mean” value (80 mg, <80 kg) was 1.13 h, the “t1/2α Mean” value (80 mg, <80 kg) was 1.27 h and the “t1/2α Median” value (80 mg, <80 kg) was 1.15 h. The “t1/2β Geometric Mean” value (80 mg, <80 kg) was 5.03 h, the “t1/2β Mean” value (80 mg, <80 kg) was 5.44 h and the “t1/2β Median” value (80 mg, <80 kg) was 4.53 h. For the same molecule, the “Percentage of Cave,ss in quartile” value (80 mg; Q1: [20-155) ng/mL) was 31%, the “Percentage of Cave,ss in quartile” value (80 mg; Q2: [155-219) ng/mL) was 31% and the “Percentage of Cave,ss in quartile” value (80 mg; Q3: [219-321) ng/mL) was 22%. For the same molecule, the “Percentage of Cave,ss in quartile” value (80 mg, Q4: [321-1326] ng/mL) was 17%, the “Cmin,ss Geometric Mean” value (80 mg, ≥110 kg) was 11.5 ng/mL and the “Cmin,ss Mean” value (80 mg, ≥110 kg) was 26.0 ng/mL. The “Cmin,ss Median” value (80 mg, ≥110 kg) was 9.77 ng/mL, the “t1/2α Geometric Mean” value (80 mg, ≥110 kg) was 1.16 h and the “t1/2α Mean” value (80 mg, ≥110 kg) was 1.30 h. The “t1/2α Median” value (80 mg, ≥110 kg) was 1.11 h, the “t1/2β Geometric Mean” value (80 mg, ≥110 kg) was 4.94 h and the “t1/2β Mean” value (80 mg, ≥110 kg) was 5.30 h. For the same molecule, the “t1/2β Median” value (80 mg, ≥110 kg) was 4.45 h, the “Cmin,ss Geometric Mean” value (100 mg, 80-<90 kg) was 32.0 ng/mL and the “Cmin,ss Mean” value (100 mg, 80-<90 kg) was 100 ng/mL. The “Cmin,ss Median” value (100 mg, 80-<90 kg) was 22.2 ng/mL, the “t1/2α Geometric Mean” value (100 mg, 80-<90 kg) was 1.16 h and the “t1/2α Mean” value (100 mg, 80-<90 kg) was 1.30 h. For the same molecule, the “t1/2α Median” value (100 mg, 80-<90 kg) was 1.08 h, the “t1/2β Geometric Mean” value (100 mg, 80-<90 kg) was 5.58 h and the “t1/2β Mean” value (100 mg, 80-<90 kg) was 7.13 h. For the same molecule, the “t1/2β Median” value (100 mg, 80-<90 kg) was 4.43 h, the “Cmin,ss Geometric Mean” value (100 mg, 90-<100 kg) was 41.7 ng/mL and the “Cmin,ss Mean” value (100 mg, 90-<100 kg) was 113 ng/mL. The “Cmin,ss Median” value (100 mg, 90-<100 kg) was 51.0 ng/mL, the “t1/2α Geometric Mean” value (100 mg, 90-<100 kg) was 1.39 h and the “t1/2α Mean” value (100 mg, 90-<100 kg) was 1.54 h. For the same molecule, the “t1/2α Median” value (100 mg, 90-<100 kg) was 1.37 h, the “t1/2β Geometric Mean” value (100 mg, 90-<100 kg) was 6.21 h and the “t1/2β Mean” value (100 mg, 90-<100 kg) was 8.49 h. For the same molecule, the “t1/2β Median” value (100 mg, 90-<100 kg) was 5.29 h, the “Cmin,ss Geometric Mean” value (100 mg, 100-<110 kg) was 26.5 ng/mL and the “Cmin,ss Mean” value (100 mg, 100-<110 kg) was 65.4 ng/mL. For the same molecule, the “Cmin,ss Median” value (100 mg, 100-<110 kg) was 22.1 ng/mL, the “t1/2α Geometric Mean” value (100 mg, 100-<110 kg) was 1.14 h and the “t1/2α Mean” value (100 mg, 100-<110 kg) was 1.30 h. For the same molecule, the “t1/2α Median” value (100 mg, 100-<110 kg) was 1.34 h, the “t1/2β Geometric Mean” value (100 mg, 100-<110 kg) was 5.55 h and the “t1/2β Mean” value (100 mg, 100-<110 kg) was 7.08 h. For the same molecule, the “t1/2β Median” value (100 mg, 100-<110 kg) was 4.65 h, the “Cmin,ss Geometric Mean” value (100 mg, <80 kg) was 31.4 ng/mL and the “Cmin,ss Mean” value (100 mg, <80 kg) was 119 ng/mL. The “Cmin,ss Median” value (100 mg, <80 kg) was 29.7 ng/mL.
